Data taken from publication PMC3684959 (Chemistry & biology, 2013).

Columns and labels:
Arp3 (Arp2/3 complex) [1] = target: T1, Arp3 (Arp2/3 complex) (Bos taurus, UniProt P61157); assay: fluorescence titration of BtArp2/[…] complex with ε-ATP; type: binding
Arp3 (Arp2/3 complex) [2] = target: T1, Arp3 (Arp2/3 complex); assay: X-ray co-crystal structure, […] Å, with CK-869 also bound; type: binding

Row | Compound | Kd (Arp3 (Arp2/3 complex) [1]) [µM] | X-ray co-crystal structure, 2.5 Å, with CK-869 also bound (Arp3 (Arp2/3 complex) [2])
1 | O=P(O)(O)OP(=O)(O)OP(=O)(O)OC[C@H]1O[C@@H](n2cnc3c2ncn2ccnc32)[C@H](O)[C@@H]1O [ε-ATP] | 3 ± 0.4 | –
2 | Nc1ncnc2c1ncn2[C@@H]1O[C@H](COP(=O)(O)OP(=O)(O)OP(=O)(O)O)[C@@H](O)[C@H]1O [ATP] | – | show strong density for both ATP and CK-869 bound to Arp3 subunit
